Columns and labels:
[1] = target: Phosphodiesterase 4 (Cavia porcellus); experiment: Phosphodiesterase 4 inhibitory activity measured against guinea pig macrophage homogenate
Interstitial collagenase = target: T1, Interstitial collagenase (Homo sapiens, UniProt P03956); experiment: Inhibition of Matrix metalloprotease-1
T1 sequence (P03956 whole entry): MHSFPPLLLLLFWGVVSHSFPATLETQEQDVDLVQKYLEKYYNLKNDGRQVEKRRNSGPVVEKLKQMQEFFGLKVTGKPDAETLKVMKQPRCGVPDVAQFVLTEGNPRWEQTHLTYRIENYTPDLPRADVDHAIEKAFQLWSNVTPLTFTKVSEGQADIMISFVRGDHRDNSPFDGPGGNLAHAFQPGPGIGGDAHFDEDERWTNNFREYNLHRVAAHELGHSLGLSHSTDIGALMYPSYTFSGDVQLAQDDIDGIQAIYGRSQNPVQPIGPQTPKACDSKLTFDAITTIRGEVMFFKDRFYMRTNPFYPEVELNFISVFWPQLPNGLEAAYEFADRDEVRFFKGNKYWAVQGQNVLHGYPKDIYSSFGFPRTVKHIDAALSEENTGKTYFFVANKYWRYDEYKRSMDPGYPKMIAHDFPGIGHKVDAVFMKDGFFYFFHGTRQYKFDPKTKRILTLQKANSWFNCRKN

Stromelysin-1 = Stromelysin-1 (Homo sapiens, UniProt P08254); experiment: Inhibitory activity against recombinant matrix metalloprotease-3
Sequence of Stromelysin-1 (P08254 whole entry): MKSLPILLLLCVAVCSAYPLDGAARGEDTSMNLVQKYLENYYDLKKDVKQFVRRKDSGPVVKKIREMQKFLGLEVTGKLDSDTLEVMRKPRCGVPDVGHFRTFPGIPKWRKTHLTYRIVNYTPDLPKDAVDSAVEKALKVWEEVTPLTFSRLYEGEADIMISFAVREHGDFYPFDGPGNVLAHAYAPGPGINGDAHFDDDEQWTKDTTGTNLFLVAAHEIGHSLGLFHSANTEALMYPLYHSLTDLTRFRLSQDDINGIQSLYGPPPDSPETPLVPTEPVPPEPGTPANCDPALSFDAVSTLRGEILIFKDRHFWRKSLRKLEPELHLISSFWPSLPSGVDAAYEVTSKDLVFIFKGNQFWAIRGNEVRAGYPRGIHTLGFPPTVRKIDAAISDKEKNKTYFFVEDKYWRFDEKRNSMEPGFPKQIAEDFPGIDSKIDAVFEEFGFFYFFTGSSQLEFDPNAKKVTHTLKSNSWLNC

[2] = target: 72 kDa type IV collagenase (Homo sapiens, UniProt P08253); experiment: Inhibitory activity against recombinant matrix metalloprotease-2
Sequence of 72 kDa type IV collagenase (P08253 whole entry): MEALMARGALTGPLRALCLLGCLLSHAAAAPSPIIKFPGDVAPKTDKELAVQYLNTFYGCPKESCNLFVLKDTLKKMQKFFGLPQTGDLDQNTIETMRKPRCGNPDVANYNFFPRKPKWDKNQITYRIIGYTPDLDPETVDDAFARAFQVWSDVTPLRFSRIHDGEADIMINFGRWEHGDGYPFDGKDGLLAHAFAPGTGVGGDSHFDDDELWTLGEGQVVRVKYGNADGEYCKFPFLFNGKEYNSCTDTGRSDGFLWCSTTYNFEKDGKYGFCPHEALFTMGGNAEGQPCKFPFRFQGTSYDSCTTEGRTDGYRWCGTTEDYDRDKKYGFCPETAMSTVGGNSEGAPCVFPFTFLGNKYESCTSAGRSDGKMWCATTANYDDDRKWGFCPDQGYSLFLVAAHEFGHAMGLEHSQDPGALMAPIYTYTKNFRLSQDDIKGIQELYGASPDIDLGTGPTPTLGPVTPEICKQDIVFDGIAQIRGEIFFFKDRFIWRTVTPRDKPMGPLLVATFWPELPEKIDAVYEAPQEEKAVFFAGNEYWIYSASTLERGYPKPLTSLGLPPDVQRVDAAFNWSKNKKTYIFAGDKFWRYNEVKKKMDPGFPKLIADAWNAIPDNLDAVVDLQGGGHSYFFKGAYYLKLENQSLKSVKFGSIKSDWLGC

Row | IC50 [1] | IC50 (Interstitial collagenase) | IC50 (Stromelysin-1) | IC50 [2] | SMILES
1 | 0.011 µM | > 10 µM | > 10 µM | > 10 µM | COc1ccc(S(=O)(=O)C(CCCCc2ccc3c(c2)OCO3)CC(=O)NO)cc1OC1CCCC1 (stereo unspecified)
2 |  | > 10 µM | > 10 µM | > 10 µM | COc1ccc(S(=O)(=O)C(CCCCc2ccccc2)CC(=O)NO)cc1OC (stereo unspecified)
3 | 0.0069 µM | > 10 µM | > 10 µM | > 10 µM | COc1ccc(S(=O)(=O)C(CCCCc2ccccc2)CC(=O)NO)cc1OC1CCCC1 (stereo unspecified)
